Data: PubChem BioAssay AID651841 (Broad Institute, 2012)
Where “and” joins values, the source holds several entries; their conditions need not be identical. Equal values may be shown once. Calls of active or inactive are those of the source. How the calls were made is not given here.

What follows are molecules tested on CAI-1 sensor histidine kinase CqsS (Vibrio cholerae) (assay: Inducers of light production, absence of autoinducers, V cholerae delta luxQ strain, confirmatory (AID 651841)). Conditions: V. cholerae WN1103 delta luxQ, luciferase light, 6 h.

Question: `CCC(CC)NC(=O)Cc1ccc(-c2ccccc2)cc1` was tested. Which AC40 did it give?
Answer: The AC40 was 2200 nM.

Question: How did the AC40 turn out when `Cn1nnnc1NCc1ccc(N2CCCC2)cc1` was run?
Answer: Its AC40 is 351 nM.

Question: With `O=C(Cc1ccc(-c2ccccc2)cc1)NC1CCCC1` as the molecule, how does the AC40 read?
Answer: The AC40 was 212 nM and 313 nM.

Question: How did the AC40 turn out when `O=C(Cc1ccc(-c2ccccc2)cc1)NC1CCCCC1` was run?
Answer: The AC40 was 8980 nM.

Question: `O=C(Cc1ccc(-c2ccccc2)cc1)NC1CCOCC1` was tested. Which AC40 did it give?
Answer: Its AC40 is 1200 nM.

Question: How did the AC40 turn out when `CCn1nnnc1NCc1cccc(N2CCCC2)c1` was run?
Answer: Its AC40 is 51.2 nM.

Question: For `CCn1nnnc1NCc1ccc(N2CCCC2)cc1`, which AC40 is on record?
Answer: Its AC40 is 10.7 nM.

Question: For `CCn1nnnc1CCc1ccc(N2CCCC2)cc1`, which AC40 is on record?
Answer: The AC40 was 713 nM.

Question: `CCC(C)NC(=O)Cc1ccc(-c2ccccc2)cc1` (stereo not given) was tested. Which AC40 did it give?
Answer: The AC40 was 2060 nM.

Question: How did the AC40 turn out when `CCCn1nnnc1NCc1ccc(C(C)C)cc1` was run?
Answer: The AC40 was 319 nM.

Question: For `CC(C)c1ccc(CNc2nnnn2C)cc1`, which AC40 is on record?
Answer: Its AC40 is 577 nM.

Question: How did the AC40 turn out when `CCCn1nnnc1NCc1ccc(N2CCCC2)cc1` was run?
Answer: The AC40 was 12.1 nM.

Question: For `O=C(Cc1ccc(-c2ccccc2)cc1)NC1CCC1`, which AC40 is on record?
Answer: Its AC40 is 280 nM.

Question: `CCn1nnnc1NCc1ccc(C(C)C)cc1` was tested. Which AC40 did it give?
Answer: The AC40 was 5.01 nM and 45.1 nM.

Question: How did the AC40 turn out when `CCn1nnnc1NCc1ccc(N2CCCCC2)cc1` was run?
Answer: The AC40 was 55.5 nM.

Question: For `CCCCn1nnnc1NCc1ccc(N2CCCC2)cc1`, which AC40 is on record?
Answer: Its AC40 is 2640 nM.

Question: How did the AC40 turn out when `CC(C)NC(=O)Cc1ccc(-c2ccccc2)cc1` was run?
Answer: The AC40 was 2500 nM.

Same assay, conditions: V. cholerae WN1103 delta luxQ, luciferase light, 6 h; at 80 µM (top of the series)

Question: `CCn1nccc1/N=C/c1ccc(N2CCCC2)cc1` was tested. Which activation did it give?
Answer: The activation was 0.487% (inactive).

Question: With `CCn1nnnc1NCc1ccccc1N1CCCC1` as the molecule, how does the activation read?
Answer: The activation was 0.052% (inactive).

Question: How did the activation turn out when `Cc1ccccc1CC(=O)NC1CCCC1` was run?
Answer: The activation was 0.164% (inactive).

Question: Which activation does the source give for `O=C(Cc1cccc(OC(F)(F)F)c1)NC1CCCC1` here?
Answer: Its activation is 2.18% (inactive).

Question: Which activation does the source give for `CCCn1nnnc1NCc1ccccc1Cl` here?
Answer: Its activation is 0.104% (inactive).

Question: Which activation does the source give for `CCn1nnc(NCc2ccc(C)cc2)n1` here?
Answer: Its activation is 0.069% (inactive).

Question: With `c1ccc(Cn2nnnc2NCc2ccc(N3CCCC3)cc2)cc1` as the molecule, how does the activation read?
Answer: Its activation is 0.279% (inactive).

Question: Which activation does the source give for `CCn1nnc(CCc2ccc(N3CCCC3)cc2)n1` here?
Answer: Its activation is 0.131% (inactive).

Question: With `c1ccc(-n2nnnc2NCc2ccc(N3CCCC3)cc2)cc1` as the molecule, how does the activation read?
Answer: The activation was 0.501% (inactive).

Question: `Cc1ccc(Cn2nnnc2NCc2ccc(N3CCCC3)cc2)cc1` was tested. Which activation did it give?
Answer: The activation was 0.549% (inactive).

Question: Which activation does the source give for `O=C(NCc1ccc(-c2ccccc2)cc1)C1CCCC1` here?
Answer: Its activation is 3.17% (inactive).

Question: How did the activation turn out when `O=C(Cc1ccccc1C(F)(F)F)NC1CCCC1` was run?
Answer: The activation was 0.044% (inactive).

Question: For `CCn1nccc1NCc1ccc(N2CCCC2)cc1`, which activation is on record?
Answer: Its activation is 0.149% (inactive).

Question: With `O=C(Cc1ccccc1OC(F)(F)F)NC1CCCC1` as the molecule, how does the activation read?
Answer: Its activation is 0.045% (inactive).

Question: Which activation does the source give for `O=C(Cc1ccccc1F)NC1CCCC1` here?
Answer: The activation was 0.603% (inactive).

Question: Which activation does the source give for `Fc1ccc(Cn2nnnc2NCc2ccc(N3CCCC3)cc2)cc1` here?
Answer: The activation was 0.54% (inactive).

Question: For `CCn1nnnc1NCc1cccc(OC)c1`, which activation is on record?
Answer: The activation was 24.5% (inactive).

Question: For `c1ccc(Cn2nnc(NCc3ccc(N4CCCC4)cc3)n2)cc1`, which activation is on record?
Answer: The activation was 0.159% (inactive).

Question: With `CS(=O)(=O)c1ccc(CC(=O)NC2CCCC2)cc1` as the molecule, how does the activation read?
Answer: Its activation is 0.008% (inactive).

Question: Which activation does the source give for `O=C(Cc1cccc(F)c1)NC1CCCC1` here?
Answer: The activation was 0.377% (inactive).

Question: How did the activation turn out when `O=C(Cc1ccccc1Cl)NC1CCCC1` was run?
Answer: Its activation is 0.107% (inactive).

Question: How did the activation turn out when `CCc1ccccc1NCc1ccc(N2CCCC2)cc1` was run?
Answer: The activation was 0.105% (inactive).

Question: How did the activation turn out when `COc1ccc(CC(=O)NC2CCCC2)cc1` was run?
Answer: Its activation is 13% (inactive).
